Holding throughout (assay): NCI-60 cell line screen, 48 h
Experiment [1] relates to HOP-62.
Experiment [2] relates to A498.
In experiment [3] the test system is DU-145.
The test system of experiment [4] is SNB-19.
Experiment [5] relates to M14.
The subject of experiment [6] is HT-29.
Experiment [7] has as its system NCI-H460.
In experiment [8] the test system is SNB-75.
The subject of experiment [9] is MDA-N.
Experiment [10] relates to TK-10.
Experiment [11] concerns COLO 205.
The test system of experiment [12] is RPMI-8226.
In experiment [13] the test system is SF-295.
Experiment [14] deals with LOX IMVI.
Experiment [15] concerns Hs-578T.
Experiment [16] relates to KM12.
Experiment [17] deals with SK-MEL-2.
For experiment [18], the system named is MCF7.
Experiment [19] concerns MDA-MB-435.

Molecules are shown by their SMILES.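 1) Cells in 96-well plates. 2) Compound, 48 h, 5 concentrations. 3) Linear interpolation between surrounding doses. 4) Unreached endpoint = highest concentration. GI50: concentration for 50% inhibition of growth.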 Activity calls are given as the source filed them. Rule as the data show it: active = GI50 up to about 1.1 µM and inactive = higher.

We go through 13 compounds from ChEMBL document CHEMBL1201862, “PubChem BioAssay data set” (2004).

Turning to `CCOC(OCC)C(CC)[Se]c1ccccc1[N+](=O)[O-]` (stereo not given), the GI50 in experiment [1] is 3.08 µM (inactive); in [2], 2.17 µM (inactive); in [3], 3.95 µM (inactive); in experiment [4], 3.75 µM (inactive); in [5] it was 1.63 µM (inactive); in experiment [6], 2.39 µM (inactive). Also, the GI50 in experiment [7] is 2.81 µM (inactive); in [8], 3.45 µM (inactive); in [9] it was 0.352 µM (active); in experiment [10], 8.09 µM (inactive); in [11], 2.48 µM (inactive); in experiment [12], 3.44 µM (inactive). The GI50 in experiment [13] is 2.32 µM (inactive); in [14], 5.33 µM (inactive); in experiment [15], 3.18 µM (inactive); in experiment [16] it was 3.06 µM (inactive); in experiment [17] it was 6.34 µM (inactive).

With `Cc1ccccc1C(CCCO)C(=O)O` (stereo not given), the GI50 in experiment [1], in [2], in experiment [4], in experiment [5], in experiment [6] and in experiment [7] was > 100 µM (inactive) each time. The GI50 in experiment [8], in experiment [10], in experiment [11], in experiment [12], in experiment [13] and in experiment [14] was > 100 µM (inactive) throughout. The GI50 in experiment [16] and in experiment [17] was > 100 µM (inactive) in each case.

Turning to `COC(=O)C1=C(C(=O)OC)C23CC4CCC2(C(=O)C1O3)C4(C)C` (stereo not given), the GI50 in [2], in experiment [3], in experiment [4], in experiment [5], in experiment [6] and in experiment [7] was > 100 µM (inactive) throughout. Also, the GI50 in experiment [8] is 53.8 µM (inactive); in [10] it was > 100 µM (inactive); in experiment [11], > 100 µM (inactive); in [12], 34.1 µM (inactive); in experiment [13], 95.1 µM (inactive); in experiment [14], 84.5 µM (inactive). Further, the GI50 in [16] and in experiment [17] was > 100 µM (inactive) throughout.

With `O=S1(=O)c2ccccc2Oc2ccc(C(/C=N/O)=N/O)cc21`, the GI50 is 65.5 µM (inactive) in experiment [1]; 26.5 µM (inactive) in experiment [18]; 11.2 µM (inactive) in [3]; 37.3 µM (inactive) in [5]; 63.8 µM (inactive) in experiment [6]; 27.9 µM (inactive) in experiment [7]. The GI50 was 45.3 µM (inactive) in experiment [8]; 0.155 µM (active) in experiment [10]; > 100 µM (inactive) in experiment [11]; 19.1 µM (inactive) in [12]; 18.2 µM (inactive) in [13]; 19.8 µM (inactive) in experiment [14]. Also, the GI50 in experiment [16] is 22 µM (inactive); in [19] it was 17.5 µM (inactive); in experiment [17], 25.7 µM (inactive).

As to `CN(C)CC/C(=N\Nc1ccc([N+](=O)[O-])cc1)c1ccccc1`, the GI50 was 14.2 µM (inactive) in experiment [1]; 13.2 µM (inactive) in [2]; 15 µM (inactive) in [4]; 13.9 µM (inactive) in [5]; 9.23 µM (inactive) in experiment [6]; 9.48 µM (inactive) in [7]. In addition, the GI50 in experiment [8] is 4.5 µM (inactive); in [10] it was 4.14 µM (inactive); in experiment [11] it was 14.9 µM (inactive); in experiment [12], 11 µM (inactive); in [13] it was 11.5 µM (inactive); in [14], 5.25 µM (inactive). Moreover, the GI50 in experiment [16] is 9.31 µM (inactive); in experiment [17], 12.9 µM (inactive).

Regarding `CC[n+]1c(/C=C/c2ccc(N(CCCl)CCCl)cc2)ccc2cc(I)ccc21`, the GI50 in [1] is 1.51 µM (inactive); in [2], 2.51 µM (inactive); in experiment [4] it was 0.843 µM (active); in experiment [5], 1.21 µM (inactive); in experiment [6], 1.84 µM (inactive); in [7] it was 1.31 µM (inactive). The GI50 is 0.394 µM (active) in [8]; 2.05 µM (inactive) in [10]; 0.191 µM (active) in experiment [11]; 0.601 µM (active) in experiment [12]; 2.04 µM (inactive) in experiment [13]; 0.766 µM (active) in experiment [14]. Besides, the GI50 in experiment [16] is 1.08 µM (active); in [17] it was 0.372 µM (active).

Take `CCN(CC)C(=O)CCCCCCCCC1CO1` (stereo not given): the GI50 in experiment [1], in experiment [18], in experiment [2], in experiment [3], in experiment [4] and in experiment [5] was > 100 µM (inactive) each time. The GI50 in experiment [6], in experiment [7], in [8], in [9], in [10] and in [11] was > 100 µM (inactive) each time. Also, the GI50 in experiment [12] was > 100 µM (inactive); in experiment [13] it was > 100 µM (inactive); in experiment [14], 63.4 µM (inactive); in experiment [15] it was > 100 µM (inactive); in experiment [16], > 100 µM (inactive); in experiment [19], > 100 µM (inactive). For the same compound, the GI50 in experiment [17] is > 100 µM (inactive).

Turning to `COC(=O)N/N=C(\Cc1ccccc1)CN(C)C`, the GI50 in experiment [1], in [2], in [5], in experiment [6], in experiment [7] and in experiment [8] was > 100 µM (inactive) each time. Also, the GI50 in experiment [10], in experiment [11], in experiment [12], in [13], in [14] and in [16] was > 100 µM (inactive) in each case. For the same compound, the GI50 in experiment [17] was > 100 µM (inactive).

Take `N#Cc1nc(-c2cccc(-c3nc(C#N)c(N)o3)n2)oc1N`: the GI50 in experiment [1], in experiment [18], in [2], in [3], in [4] and in experiment [5] was > 100 µM (inactive) in each case. Further, the GI50 in [6], in experiment [7], in experiment [8], in experiment [9], in experiment [10] and in experiment [11] was > 100 µM (inactive) each time. Further, the GI50 in [12], in experiment [13], in experiment [14], in [15], in [16] and in experiment [19] was > 100 µM (inactive) throughout. Besides, the GI50 in experiment [17] is > 100 µM (inactive).

As to `O=C(/C=C\c1cccc2ccccc12)c1cccc2ccccc12`, the GI50 in [1] was 20.7 µM (inactive); in experiment [2] it was 17.2 µM (inactive); in experiment [4], 10.6 µM (inactive); in experiment [5] it was 12.2 µM (inactive); in [6] it was 5.25 µM (inactive); in experiment [7], 8.65 µM (inactive). In addition, the GI50 in experiment [8] was 5.37 µM (inactive); in [10], > 10 µM (inactive); in experiment [11] it was > 10 µM (inactive); in [12] it was 6.95 µM (inactive); in experiment [13] it was 14.7 µM (inactive); in experiment [14] it was 5.61 µM (inactive). The GI50 in experiment [16] is 6.55 µM (inactive); in experiment [17], 18.6 µM (inactive).

Take `O=C1Oc2cc3c(c4cccc1c24)OCN(c1ccc(Cl)cc1)C3`: the GI50 in [1] is 4.32 µM (inactive); in [2], > 100 µM (inactive); in [4], 47.8 µM (inactive); in experiment [5] it was 6.97 µM (inactive); in experiment [6] it was 11.4 µM (inactive); in experiment [7] it was 2.31 µM (inactive). For the same compound, the GI50 in [8] is > 63.7 µM (inactive); in experiment [10] it was > 100 µM (inactive); in experiment [11] it was 7.82 µM (inactive); in [12] it was 7.14 µM (inactive); in [13], 48 µM (inactive); in [14] it was 0.176 µM (active). Further, the GI50 is > 44.5 µM (inactive) in experiment [16] and 1.83 µM (inactive) in experiment [17].

As to `COC(=O)C1CC2(CC3=C1CCCC3)OCCO2` (stereo not given), the GI50 in experiment [1], in experiment [2], in experiment [4], in [5], in experiment [6] and in experiment [7] was > 100 µM (inactive) throughout. Moreover, the GI50 in experiment [8], in [10], in experiment [11], in experiment [12], in experiment [13] and in experiment [14] was > 100 µM (inactive) in each case. The GI50 in [16] and in experiment [17] was > 100 µM (inactive) throughout.

Turning to `COc1cc(CC(=O)O)c([N+](=O)[O-])cc1OC`, the GI50 in experiment [1], in experiment [2], in [4], in experiment [5], in [6] and in [7] was > 100 µM (inactive) in each case. The GI50 in [8], in [10], in experiment [11], in experiment [12], in [13] and in experiment [14] was > 100 µM (inactive) each time. For the same compound, the GI50 in experiment [16] and in [17] was > 100 µM (inactive) each time.
